The assay addresses Bcl-2-like protein 1 (Homo sapiens) (UniProt Q07817). The experiment in a line: Bim-Bcl-XL interaction inhibitors, potency, dose response, biochemical, multiplexed, bead flow cytometry, human Bcl-XL (AID 1322). For inhibition: test concentration not given here. The settings on record: Bead-based flow cytometry, Bim peptide-Bcl-XL binding, MCF; for inhibition: active compounds read high.

Active and inactive are the calls of the source. The rule behind the calls is not given here.

Bcl-2-like protein 1 (Homo sapiens), sequence (Q07817 whole entry, looked up): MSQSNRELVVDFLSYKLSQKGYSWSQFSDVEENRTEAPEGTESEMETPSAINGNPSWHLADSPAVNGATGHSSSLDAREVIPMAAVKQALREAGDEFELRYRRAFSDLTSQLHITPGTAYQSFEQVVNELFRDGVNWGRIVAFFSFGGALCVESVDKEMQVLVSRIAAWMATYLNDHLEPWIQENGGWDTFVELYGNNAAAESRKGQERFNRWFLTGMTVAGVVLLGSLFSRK

Regarding `S=C(Nc1ccc(N2CCOCC2)cc1)Nc1ccc2nc(-c3ccco3)c(-c3ccco3)nc2c1`, the inhibition result was “inactive”.

As to `COCCn1nnnc1CN(Cc1ccco1)Cc1cc2cc3c(cc2[nH]c1=O)OCO3`, the inhibition entry was “inactive”.

As to `CCNC(=O)N1c2ccc(OCC)cc2C(C)=CC1(C)C`, the inhibition result is “inactive”.

Regarding `CC(C)c1ccc(C2CC(c3ccc(Br)cc3)=NN2C(N)=S)cc1` (stereo not drawn), the outcome was inactive.

Turning to `O=C(OCc1cnc(Cl)s1)c1cccc(Cl)c1Cl`, the inhibition result is “inactive”.

Take `O=C1NC(=S)S/C1=C/c1ccc(N2CCOCC2)o1`: the inhibition result is “inactive”.

Take `CNc1ccc(Br)cc(C(=O)/C=C/c2cc(OC)ccc2OC)c1=O`: the inhibition result is “inactive”.

With `CNc1ccc(Br)cc(C(=O)/C=C/c2ccc(OC)cc2)c1=O`, the inhibition entry is “inactive”.

As for `CCSc1ncc(Cl)c(C(=O)Nc2sc3c(c2C(=O)NCc2cccnc2)CCCC3)n1`, the inhibition entry is “inactive”.

On to `COc1ccc(NC(=O)c2cccs2)cc1`, for which the inhibition result was “inactive”.

Regarding `Cc1ccccc1-c1nc(-c2ccc(NC(=O)c3ccc4c(c3)OCO4)cc2)no1`, the inhibition entry was “inactive”.

For `Cc1ccc(-n2c(CSc3nc(C)cc(C)n3)nnc2SCC(=O)NCc2ccco2)cc1`, the inhibition entry was “inactive”.

Take `Cc1nc2cc(F)ccc2n1C1CCN(C(=O)c2c(F)cccc2F)CC1`: the inhibition result is “inactive”.

For the compound `Cc1ccc(-c2cc(-c3ccc(F)cc3)c(C#N)c(N)n2)o1`, the inhibition entry is “inactive”.

For `Cc1onc(-c2ccccc2Cl)c1C(=O)Nc1nn[nH]n1`, the inhibition entry was “inactive”.

Take `O=C(O)c1cccc(NC2=C(Cl)C(=O)c3ccccc3C2=O)c1`: the result was inactive.

In the case of `FC(F)(F)c1ccc2c(c1)C1C=CCC1C(c1ccncc1)N2` (stereo not drawn), the result was inactive.

As to `CCOc1cc(CNc2ccc(N3CCCCC3)cc2)cc(Br)c1OCC(=O)NC(C)(C)C`, the result was inactive.

On to `Cc1ccnc(NS(=O)(=O)c2ccc(NS(=O)(=O)c3cccs3)cc2)n1`, for which the inhibition result is “inactive”.

With `C/C(=C\c1ccco1)C1Nc2cccc3cccc(c23)N1`, the inhibition entry is “inactive”.

As to `Cc1cc(N)ccc1N1CCCC1`, the inhibition result was “inactive”.

Take `Cc1ccc(C)c(NC(=O)C(=O)NCc2ccccn2)c1`: the outcome was inactive.

Consider `Cn1c(N)c(C(=O)COC(=O)c2cc(-c3ccco3)nc3ccccc23)c(=O)n(C)c1=O`, for which the inhibition entry was “inactive”.

On to `O=C(Cn1c2ccccc2c(=O)c2ccccc21)N/N=C/c1ccc(N2CCCC2)c([N+](=O)[O-])c1`, for which the inhibition entry was “inactive”.

For the compound `CCN(CC)c1ccc(NC(=O)c2cccc(C)c2)cc1S(=O)(=O)Nc1ccccc1OC`, the inhibition result was “inactive”.

Take `Cc1ccc(/C=C/C(=O)c2ccccc(=O)c2O)c(C)c1`: the inhibition entry is “inactive”.

As to `CN(Cc1cccs1)C(=O)CCc1c[nH]c2ccccc12`, the result was inactive.

For `Cc1cccc(Nc2nc(-c3ccncc3)cs2)c1`, the inhibition entry was “inactive”.

As to `O=C(Nc1ccccc1)Nc1ccc2ncoc2c1`, the inhibition result is “inactive”.

As for `CN(C)c1cccc(NC(=O)C2(C)CC2(Cl)Cl)c1` (stereo not drawn), the outcome was inactive.

`O=C(Nc1ccncc1)c1cc2ccccc2o1`: the inhibition entry is “inactive”.

With `Cc1ccc(CC(=O)OCCNC(=O)c2cccnc2)cc1`, the inhibition result is “inactive”.

For the compound `CCOC(=O)CSC1=NC(=O)/C(=C/c2ccc(OC)cc2)S1`, the inhibition entry was “inactive”.

With `CN1CCN(c2ccccc2N)CC1`, the inhibition result was “inactive”.

In the case of `C/C(=N\NC(=O)Cc1cccn1C)c1ccc2ccccc2c1`, the inhibition entry is “inactive”.

Consider `Cc1ccc(NC(=O)c2cc(S(=O)(=O)NCCC3=CCCCC3)ccc2F)cc1F`, for which the outcome was inactive.

In the case of `CSc1n[nH]c2nc3c(c(=O)n12)C1(CCCC1)Cc1ccccc1-3`, the result was inactive.

In the case of `Cc1ccc(C2=N/C(=C/c3cccs3)C(=O)N2Nc2ccccc2)cc1`, the inhibition entry was “inactive”.

As for `CCOC(=O)c1sc(N)c(C(=O)Nc2ccccc2OC)c1C`, the inhibition result is “inactive”.

As to `CCN1/C(=C\c2ccc3cc(C)ccc3[n+]2CC)Sc2cc(C)c(C)cc21`, the outcome was inactive.

Take `CCN(CC)c1nc(N)nc(N(c2ccccc2)c2ccccc2)n1`: the inhibition entry was “inactive”.

Consider `C(=C\c1ccccc1)/CSc1nnc(-c2ccccn2)n1Cc1ccco1`, for which the inhibition entry was “inactive”.

With `N/C(=N\N=C/c1ccc(Br)cc1)N/N=C\c1ccc(Br)cc1`, the inhibition entry is “inactive”.

Consider `CN(C)[C@@H]1C(=O)C(C(=O)NCN2CCCC2)=C(O)[C@@]2(O)C(=O)C3=C(O)c4c(O)cccc4[C@@](C)(O)C3CC12` (stereo partly drawn), for which the inhibition result was “inactive”.

With `Cc1onc(-c2ccccc2)c1C(=O)Nc1nnc(COc2ccc(Cl)cc2)s1`, the inhibition result is “inactive”.

On to `CCCCCCc1cc2cc(C(=O)Nc3ccccc3)c(=O)oc2cc1O`, for which the inhibition entry was “inactive”.

As for `c1ccc(-c2nc(N3CCOCC3)s[n+]2-c2ccccc2)cc1`, the inhibition result is “inactive”.

As to `CCN(CC)c1ccc(NC(=O)COc2ccccc2C)cc1S(=O)(=O)Nc1ccccc1OC`, the inhibition entry was “inactive”.

Turning to `Cc1ccc(/C=C/C(=O)c2ccccc(=O)c2O)cc1C`, the inhibition entry was “inactive”.

For `CNC(CC(=O)c1ccc([N+](=O)[O-])cc1)C(Cl)(Cl)Cl` (stereo not drawn), the result was inactive.

As to `Fc1ccccc1-n1cc(-c2ccccc2)[nH]c1=S`, the inhibition entry was “inactive”.

On to `Cc1[nH]n(C(N)=S)c(=O)c1N=Nc1ccc(S(=O)(=O)N2CCCCCC2)cc1`, for which the inhibition result is “inactive”.

For the compound `CCOC(=O)c1ccc(N=c2ssnc2Cl)cc1`, the outcome was inactive.

Take `CN(C)/C=C/C(=O)c1ccc(C(F)(F)F)cc1F`: the inhibition entry was “inactive”.

Turning to `COc1ccc(NS(=O)(=O)c2cc(NC(=O)c3ccc(C)o3)ccc2N2CCCCC2)cc1`, the inhibition result is “inactive”.

On to `CCN(CC)c1ccc(NC(=O)c2ccccc2F)cc1S(=O)(=O)Nc1ccccc1OC`, for which the inhibition result is “inactive”.

With `Cc1ccc(-c2nc(N3CCOCC3)s[n+]2-c2ccccc2)cc1`, the inhibition entry is “inactive”.

As to `COc1ccc(N2C(=O)C(Cl)=C(Nc3ccccc3O)C2=O)cc1`, the inhibition result was “inactive”.

Regarding `CS(=O)(=O)NN1C(=O)c2ccccc2NC1c1ccccc1` (stereo not drawn), the result was inactive.

Take `CNc1nc2ccccc2n1/N=C/c1cccc(OC)c1OC`: the inhibition entry was “inactive”.

Consider `Cc1[nH]nc(SCC(=O)NCc2ccc(F)cc2)c1[N+](=O)[O-]`, for which the inhibition entry is “inactive”.

As for `Cc1cc(N2CCN(C)CC2)nc2ccc(NC(=S)N3CCC4(CC3)OCCO4)cc12`, the result was inactive.

Regarding `C/C(=N/NC(=O)c1cc(O)c(O)c(O)c1)c1ccc([N+](=O)[O-])cc1`, the outcome was inactive.

With `CCOC(=O)c1ccc(NC(=O)CSCCC(=O)O)cc1`, the inhibition result is “inactive”.

On to `Cc1cc(C)c2c(N)c3cccc(C)c3nc2n1`, for which the inhibition result was “inactive”.

Turning to `Cc1cc(C)c(C)c(S(=O)(=O)N2CCN(CC(=O)NC(=O)NCc3ccccc3)CC2)c1C`, the inhibition result was “inactive”.

With `COc1ccc(N2C(=O)C(Cl)=C(Nc3c(C)n(C)n(-c4ccccc4)c3=O)C2=O)cc1`, the inhibition result was “inactive”.

Consider `O=C1/C(=C/c2cccs2)Sc2ccccc21`, for which the inhibition result is “inactive”.

`CCOc1cc(S(=O)(=O)Nc2ccccn2)ccc1F`: the inhibition result was “inactive”.

As for `Nc1ccc(-c2cn3cccnc3n2)cc1`, the result was inactive.

For `COc1ccc(/C=C/C(=O)Nc2sc(Cc3ccccc3)c(C)c2C(N)=O)cc1`, the inhibition entry was “inactive”.

`Cc1cc(C)cc(NS(=O)(=O)c2ccc3c(c2)c(=O)n(C)c(=O)n3C)c1`: the inhibition result is “inactive”.

With `Cc1ccc(SCCC(=O)Nc2ccc(Br)c(C)c2)cc1`, the inhibition entry was “inactive”.

On to `Clc1nssc1=Nc1ccc(Br)cc1`, for which the result was inactive.

Turning to `O=C(/C=C/c1ccc(-c2ccccc2[N+](=O)[O-])o1)c1ccc(F)cc1`, the inhibition entry was “inactive”.

On to `CCOC(=O)c1cccc(Nc2ncnc3ccccc23)c1`, for which the inhibition entry was “inactive”.

As to `Cc1nc(=S)c2ccccc2[nH]1`, the inhibition entry was “inactive”.

Consider `COC(=O)CSc1nccc(-c2cccs2)n1`, for which the result was inactive.

Take `O=C(CCCN1C(=O)c2cccc3cccc(c23)C1=O)N1CCN(c2ccccn2)CC1`: the result was inactive.

For `Cc1cc(-c2nnc(CCC(=O)NC(C)c3cccc4ccccc34)o2)no1` (stereo not drawn), the outcome was inactive.

Take `COc1cc(NC(=S)NCCCO)c(OC)cc1Cl`: the inhibition result is “inactive”.

For the compound `CC(C)C(=O)NC(c1ccccc1)c1cc([N+](=O)[O-])c2cccnc2c1O` (stereo not drawn), the outcome was inactive.

`CCOc1cccc(CNc2ccc(O)cc2)c1OCc1ccccc1Cl`: the inhibition result is “inactive”.

On to `CCOc1cc(/C=N/NC(N)=O)ccc1OCC(=O)Nc1ccc(C)c(C)c1`, for which the inhibition entry is “inactive”.

`Clc1nssc1=Nc1ccccc1`: the inhibition entry was “inactive”.

On to `O=C(NC1=NCCS1)NC12CC3CC(CC(C3)C1)C2`, for which the inhibition entry is “inactive”.

For `Cc1ccc(-c2nnc(Cc3ccc(Cl)cc3)o2)cc1`, the inhibition entry was “inactive”.

For `O=C(Oc1ccc(-c2cnc3ccccc3n2)cc1)c1cccc([N+](=O)[O-])c1`, the inhibition entry is “inactive”.

Regarding `CCC(CC)C(=O)Nc1cccc(S(=O)(=O)c2cccc(NC(=O)C(CC)CC)c2)c1`, the inhibition entry was “inactive”.

Regarding `CCCCOc1ccc(Cc2c(Cl)nc(SC)nc2N2CCOCC2)cc1`, the inhibition result was “inactive”.

As for `O=C(COc1ccccc1)Nc1ccc2c(c1)Cc1cc(NC(=O)COc3ccccc3)ccc1-2`, the inhibition result is “inactive”.

Turning to `Cc1c(NC2=C(Cl)C(=O)N(c3ccccc3Cl)C2=O)c(=O)n(-c2ccccc2)n1C`, the inhibition result was “inactive”.

`CC(=O)Nc1ccc2nc(CN3CCN(CC(C)C)C(CCO)C3)ccc2c1` (stereo not drawn): the outcome was inactive.
